The text below walks through data of ChEMBL document CHEMBL4811281, “Identification of aryl sulfonamides as novel and potent inhibitors of NaV1.5” (Bioorg Med Chem Lett, 2021).

pIC50, pKi: −log10 of the molar value. Where only a bound is given, the exact number is not on record here.

For one data set, the species on record is Homo sapiens. The data set can be described thus: Selectivity ratio of IC50 for inhibition of human Nav1.5 VSD4 F1759A mutant to IC50 for inhibition of human Nav1.5 by automated voltage clamp electrophysiology.
Another data set has as its target Cytochrome P450 2C9 (Homo sapiens, UniProt P11712). Kind of data set: Inhibition of CYP2C9 (unknown origin). The format is ADME.
A short description of data set [1]: Half life in FVB mouse at 1 mg/kg, iv. The format is ADME, organism-based. To be noted: in vivo.
Data set [2] in a line: Cmax in FVB mouse at 10 mg/kg, po. To be noted: in vivo. The arrangement: route oral, dose 10 mg/kg. The format is ADME, organism-based.
A further data set has as its target Cytochrome P450 3A4 (Homo sapiens, UniProt P08684). The data set can be described thus: Inhibition of CYP3A4 (unknown origin). The format is ADME.
A short description of data set [3]: Half life in FVB mouse at 10 mg/kg, po. To be noted: in vivo. The format is ADME, organism-based.
The target in the next data set is Cytochrome P450 2D6 (Homo sapiens, UniProt P10635). The data set can be described thus: Inhibition of CYP2D6 (unknown origin). The format is ADME.
A short description of data set [4]: Ratio of drug level in brain to plasma in FVB mouse at 10 mg/kg, po measured after 2 hrs. The format is ADME, organism-based. To be noted: read-out: BPR.
Data set [5] is described as follows: Intrinsic clearance in mouse liver microsomes. The format is ADME, Microsome. To be noted: read-out: CLH.
Data set [6] can be described thus: AUC in FVB mouse at 1 mg/kg, iv. The format is ADME, organism-based. Also on record: dose 1 mg/kg. To be noted: in vivo.
In a further data set the target is Cytochrome P450 1A2 (Homo sapiens, UniProt P05177). The data set can be described thus: Inhibition of CYP1A2 (unknown origin). The format is ADME.
The nature of data set [7]: Volume of distribution at steady state in FVB mouse at 1 mg/kg, iv. The format is ADME, organism-based. To be noted: in vivo, read-out: Vdss.
A short description of data set [8]: Clearance in FVB mouse at 1 mg/kg, iv. The format is ADME, organism-based. To be noted: in vivo.
Data set [9] in a line: AUC in FVB mouse at 10 mg/kg, po. The format is ADME, organism-based. The arrangement: dose 10 mg/kg. To be noted: in vivo.
A short description of data set [10]: Oral bioavailability in FVB mouse at 10 mg/kg. The format is ADME, organism-based. To be noted: in vivo.
Data set [11] has as its target T1, Sodium channel protein type 5 subunit alpha (Homo sapiens, UniProt Q14524). Kind of data set: Inhibition of human Nav1.5 by automated voltage clamp electrophysiology.
The target in a further data set is Cytochrome P450 2C19 (Homo sapiens, UniProt P33261). The data set can be described thus: Inhibition of CYP2C19 (unknown origin). The format is ADME.
Data set [12] in a line: Inhibition of human Nav1.5 VSD4 F1759A mutant by automated voltage clamp electrophysiology.
Data set [13] can be described thus: Plasma concentration in FVB mouse at 10 mg/kg, po measured after 2 hrs. The format is ADME, organism-based.
The target of data set [14] is T1, Sodium channel protein type 5 subunit alpha. The data set can be described thus: Displacement of [3H]BNZA from Nav1.5 (unknown origin).
The nature of data set [15]: Intrinsic clearance in human liver microsomes. To be noted: read-out: CLH. The format is ADME, Microsome.
A short description of data set [16]: Drug uptake in FVB mouse brain at 10 mg/kg, po measured after 2 hrs. The format is ADME, organism-based. To be noted: read-out: Drug uptake.

T1 sequence (Q14524 whole entry): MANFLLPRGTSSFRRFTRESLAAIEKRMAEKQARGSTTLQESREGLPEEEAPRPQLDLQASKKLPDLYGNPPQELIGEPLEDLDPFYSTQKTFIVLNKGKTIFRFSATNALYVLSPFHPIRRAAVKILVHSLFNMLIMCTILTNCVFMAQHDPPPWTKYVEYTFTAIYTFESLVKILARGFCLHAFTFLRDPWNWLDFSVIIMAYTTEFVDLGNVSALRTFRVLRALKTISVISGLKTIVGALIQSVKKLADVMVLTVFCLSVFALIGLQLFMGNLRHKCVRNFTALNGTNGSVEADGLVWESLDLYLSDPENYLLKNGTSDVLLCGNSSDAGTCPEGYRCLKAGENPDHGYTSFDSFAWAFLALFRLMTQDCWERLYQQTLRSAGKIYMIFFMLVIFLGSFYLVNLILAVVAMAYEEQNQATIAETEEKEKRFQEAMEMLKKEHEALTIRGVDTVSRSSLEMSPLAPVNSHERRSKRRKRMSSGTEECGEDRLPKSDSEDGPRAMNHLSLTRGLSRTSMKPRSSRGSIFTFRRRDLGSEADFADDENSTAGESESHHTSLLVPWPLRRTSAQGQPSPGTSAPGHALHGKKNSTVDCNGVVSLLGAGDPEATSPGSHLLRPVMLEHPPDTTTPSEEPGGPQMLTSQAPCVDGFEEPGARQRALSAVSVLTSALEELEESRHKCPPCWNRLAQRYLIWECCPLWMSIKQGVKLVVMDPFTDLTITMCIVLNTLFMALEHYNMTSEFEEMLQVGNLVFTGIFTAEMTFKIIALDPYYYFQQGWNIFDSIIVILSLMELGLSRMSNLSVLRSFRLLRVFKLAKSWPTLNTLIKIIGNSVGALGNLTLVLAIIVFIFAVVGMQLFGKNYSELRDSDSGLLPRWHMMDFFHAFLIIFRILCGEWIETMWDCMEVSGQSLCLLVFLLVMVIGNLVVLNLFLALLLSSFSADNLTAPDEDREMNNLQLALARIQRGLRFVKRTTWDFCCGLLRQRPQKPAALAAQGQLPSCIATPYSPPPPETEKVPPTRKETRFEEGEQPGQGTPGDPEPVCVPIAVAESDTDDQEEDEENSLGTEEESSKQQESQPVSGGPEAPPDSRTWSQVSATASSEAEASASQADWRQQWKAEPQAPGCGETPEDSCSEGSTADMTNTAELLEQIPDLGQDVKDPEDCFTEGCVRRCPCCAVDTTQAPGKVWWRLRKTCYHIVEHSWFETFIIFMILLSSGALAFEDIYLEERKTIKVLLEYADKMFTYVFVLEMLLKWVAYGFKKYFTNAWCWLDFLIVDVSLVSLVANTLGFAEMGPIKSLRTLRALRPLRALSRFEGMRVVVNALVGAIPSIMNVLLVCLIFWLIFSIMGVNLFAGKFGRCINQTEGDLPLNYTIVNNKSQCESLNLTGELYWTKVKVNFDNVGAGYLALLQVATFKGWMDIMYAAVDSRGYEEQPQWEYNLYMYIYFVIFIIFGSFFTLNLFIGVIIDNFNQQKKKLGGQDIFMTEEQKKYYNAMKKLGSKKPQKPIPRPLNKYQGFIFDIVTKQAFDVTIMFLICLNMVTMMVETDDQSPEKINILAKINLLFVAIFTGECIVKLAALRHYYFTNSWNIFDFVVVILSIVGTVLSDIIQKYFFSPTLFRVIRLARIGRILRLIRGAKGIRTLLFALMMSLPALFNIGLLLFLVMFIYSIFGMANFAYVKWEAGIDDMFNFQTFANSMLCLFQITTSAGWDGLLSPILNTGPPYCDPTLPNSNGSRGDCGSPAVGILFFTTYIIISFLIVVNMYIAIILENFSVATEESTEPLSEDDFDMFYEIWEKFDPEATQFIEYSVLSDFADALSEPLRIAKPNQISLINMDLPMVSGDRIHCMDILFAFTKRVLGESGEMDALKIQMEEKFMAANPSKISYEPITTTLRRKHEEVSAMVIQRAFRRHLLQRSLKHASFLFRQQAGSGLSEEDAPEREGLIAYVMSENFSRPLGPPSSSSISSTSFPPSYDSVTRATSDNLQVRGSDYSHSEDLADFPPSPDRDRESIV
Chain of Cytochrome P450 2C19 (P33261 whole entry): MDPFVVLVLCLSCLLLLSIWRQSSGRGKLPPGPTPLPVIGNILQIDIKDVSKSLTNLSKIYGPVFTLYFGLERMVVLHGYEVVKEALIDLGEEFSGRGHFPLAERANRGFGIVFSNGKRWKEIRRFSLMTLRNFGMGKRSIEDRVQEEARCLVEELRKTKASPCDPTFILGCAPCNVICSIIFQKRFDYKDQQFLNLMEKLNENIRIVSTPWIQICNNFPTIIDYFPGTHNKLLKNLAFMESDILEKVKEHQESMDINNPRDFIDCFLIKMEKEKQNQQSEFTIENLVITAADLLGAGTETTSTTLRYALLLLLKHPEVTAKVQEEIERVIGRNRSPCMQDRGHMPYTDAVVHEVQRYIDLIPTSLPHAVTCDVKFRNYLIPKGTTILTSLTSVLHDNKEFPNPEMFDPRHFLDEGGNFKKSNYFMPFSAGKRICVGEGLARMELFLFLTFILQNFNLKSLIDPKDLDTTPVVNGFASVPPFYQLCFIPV
Chain of Cytochrome P450 2D6 (P10635 whole entry): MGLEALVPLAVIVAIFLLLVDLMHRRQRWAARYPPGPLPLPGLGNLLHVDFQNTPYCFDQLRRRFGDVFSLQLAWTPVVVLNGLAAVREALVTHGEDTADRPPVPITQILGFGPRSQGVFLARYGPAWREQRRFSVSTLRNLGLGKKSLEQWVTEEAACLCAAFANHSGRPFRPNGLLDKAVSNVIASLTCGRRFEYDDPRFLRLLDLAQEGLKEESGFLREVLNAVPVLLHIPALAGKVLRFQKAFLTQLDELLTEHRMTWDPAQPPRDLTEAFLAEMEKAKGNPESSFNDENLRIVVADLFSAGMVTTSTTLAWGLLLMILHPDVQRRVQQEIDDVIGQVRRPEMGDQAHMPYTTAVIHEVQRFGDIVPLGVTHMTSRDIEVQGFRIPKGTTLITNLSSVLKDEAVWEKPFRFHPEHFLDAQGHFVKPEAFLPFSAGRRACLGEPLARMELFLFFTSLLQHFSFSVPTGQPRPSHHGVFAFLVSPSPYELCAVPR
Chain of Cytochrome P450 1A2 (P05177 whole entry): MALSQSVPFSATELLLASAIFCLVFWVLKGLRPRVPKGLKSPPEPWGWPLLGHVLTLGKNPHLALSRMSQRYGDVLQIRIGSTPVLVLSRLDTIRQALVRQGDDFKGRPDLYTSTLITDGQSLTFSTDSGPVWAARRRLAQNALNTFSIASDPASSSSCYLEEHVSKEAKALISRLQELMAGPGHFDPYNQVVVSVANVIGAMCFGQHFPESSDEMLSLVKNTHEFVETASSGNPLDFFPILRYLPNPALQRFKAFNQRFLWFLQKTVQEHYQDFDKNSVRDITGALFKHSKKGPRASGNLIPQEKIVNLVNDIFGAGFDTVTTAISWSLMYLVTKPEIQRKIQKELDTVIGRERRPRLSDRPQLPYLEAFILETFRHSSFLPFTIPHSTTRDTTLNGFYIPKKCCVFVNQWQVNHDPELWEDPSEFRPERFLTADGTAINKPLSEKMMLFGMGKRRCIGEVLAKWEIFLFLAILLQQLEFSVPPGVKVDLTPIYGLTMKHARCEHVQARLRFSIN
Chain of Cytochrome P450 3A4 (P08684 whole entry): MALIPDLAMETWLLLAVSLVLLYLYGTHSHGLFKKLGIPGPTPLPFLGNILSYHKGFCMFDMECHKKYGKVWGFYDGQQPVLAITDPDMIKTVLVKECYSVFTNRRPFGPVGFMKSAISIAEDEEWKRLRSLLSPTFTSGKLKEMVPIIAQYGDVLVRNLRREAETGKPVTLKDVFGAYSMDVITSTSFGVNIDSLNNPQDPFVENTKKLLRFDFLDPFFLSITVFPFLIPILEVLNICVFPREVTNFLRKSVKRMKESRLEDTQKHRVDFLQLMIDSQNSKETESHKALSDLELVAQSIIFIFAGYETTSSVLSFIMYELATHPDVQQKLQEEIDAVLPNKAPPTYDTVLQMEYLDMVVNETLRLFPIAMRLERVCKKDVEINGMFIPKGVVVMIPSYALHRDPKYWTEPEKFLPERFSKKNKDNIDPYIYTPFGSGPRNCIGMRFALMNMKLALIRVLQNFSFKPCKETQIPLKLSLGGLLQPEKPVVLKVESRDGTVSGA
Chain of Cytochrome P450 2C9 (P11712 whole entry): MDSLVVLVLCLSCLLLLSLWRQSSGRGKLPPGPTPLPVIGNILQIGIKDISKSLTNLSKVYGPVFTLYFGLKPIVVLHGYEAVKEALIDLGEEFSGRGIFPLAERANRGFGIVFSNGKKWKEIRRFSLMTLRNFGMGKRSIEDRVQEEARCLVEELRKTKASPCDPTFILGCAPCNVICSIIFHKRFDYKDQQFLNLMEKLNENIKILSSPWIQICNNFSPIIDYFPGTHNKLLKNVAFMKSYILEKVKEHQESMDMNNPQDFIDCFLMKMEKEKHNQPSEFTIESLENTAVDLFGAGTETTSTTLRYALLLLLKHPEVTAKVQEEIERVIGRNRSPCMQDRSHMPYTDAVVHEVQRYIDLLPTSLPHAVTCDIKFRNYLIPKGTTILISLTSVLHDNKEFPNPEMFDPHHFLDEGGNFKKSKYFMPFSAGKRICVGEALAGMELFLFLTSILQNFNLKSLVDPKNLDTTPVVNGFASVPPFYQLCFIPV

For the compound `O=S(=O)(Nc1cccc(F)n1)c1cc(F)c(OC2CCN(CC(F)(F)F)CC2c2ccc(F)c(F)c2)cc1F` (single isomer, unassigned; (-)) [listing 1 of 2 here], in the data set filed under Homo sapiens, the Ratio IC50 is over 40.

For `O=S(=O)(Nc1cccc(F)n1)c1cc(F)c(OC2CCN(CC(F)(F)F)CC2c2ccc(F)c(F)c2)cc1F` (single isomer, unassigned; (-)) [listing 2 of 2 here], the pIC50 at Cytochrome P450 2C9 was 5.16; in data set [11], 6.62; in data set [12], under 5.00. Besides, the half-life in [1] is 4.3 h; in data set [3], 4.1 h. Also, the highest level in data set [2] (Cmax) was 5.2 µM. Also, the “inhibition (INH)” value against Cytochrome P450 3A4, against Cytochrome P450 2D6, on Cytochrome P450 1A2 and on Cytochrome P450 2C19 was “Not Active” each time. The Kp at 2 h in [4] amounted to 0.28. For the same compound, the CLint scaled in data set [5] was 50 mL/min/kg; in [15] it was 9 mL/min/kg. The figures for the AUC in data set [6] and in data set [9] were 16 µM·h and 72 µM·h, respectively. Moreover, the Vd in data set [7] was found to be 0.6 L/kg. In addition, the clearance in [8] is 1.8 mL/min/kg. This compound also yielded a bioavailability in [10] of 45%. Further, the concentration at 2 h amounted to 9.37 µM in [13] and 2.62 µM in data set [16]. For the same compound, the negative logarithm of the Ki (pKi) in data set [14] is 5.69.
